Consider 32 compounds from ChEMBL document CHEMBL1817620, “Synthesis and cytotoxicity of 2-phenylquinazolin-4(3H)-one derivatives” (Eur J Med Chem, 2011).

The test system of assay [1] is HeLa. The experiment in a line: Cytotoxicity against human HeLa cells after 4 days by MTT assay. It is filed as functional, cell-based. Particulars: 96 h. A general note: Tetrazolium assays rely on reduction of a dye to a coloured formazan, in cell work by metabolically active cells.
For assay [2], the system named is DU-145. The experiment in a line: Cytotoxicity against human DU145 cells after 4 days by MTT assay. It is filed as functional, cell-based. As to conditions: DU-145, 96 h.
Assay [3] concerns HCT-29. The experiment in a line: Cytotoxicity against human HCT29 cells after 4 days by MTT assay. Particulars: HCT-29, 96 h. It is filed as functional, cell-based.
In assay [4] the test system is MDA-MB-231. The experiment in a line: Cytotoxicity against human MDA-MB-231 cells after 4 days by MTT assay. It counts as functional, cell-based. As to conditions: MDA-MB-231, 96 h.
For assay [5], the system named is HL-60. The experiment in a line: Cytotoxicity against human HL60 cells after 4 days by MTT assay. It counts as functional, cell-based. Particulars: HL-60, 96 h.
For assay [6], the system named is HeLa. The experiment in a line: Cell cycle arrest in human HeLa cells assessed as fold increase in G1 phase at 10 umol after 36 hrs using propidium iodide staining by flow cytometry relative to control. It is filed as functional. On the technique in general: A flow cytometer gives signals particle by particle.
In assay [7] the test system is HeLa. Nature of the assay: Cell cycle arrest in human HeLa cells assessed as enhanced ratio of cell death at 10 umol after 72 hrs using propidium iodide staining by flow cytometry relative to control. It counts as functional.

One may read the IC50 as the concentration at which inhibition is half-maximal. Read a high IC50 as weaker potency in that assay. Regarding `COc1ccc(S(=O)(=O)N2CCN(C(=O)c3ccc(-c4nc5ccccc5c(=O)n4Cc4ccccc4)cc3)CC2)cc1`, the IC50 stood at 34.2 µM in assay [1]; 16 µM in assay [2]; 22.5 µM in assay [3]; 48.1 µM in assay [4]; 6.1 µM in assay [5].
On to `O=C(c1ccc(-c2nc3ccccc3c(=O)[nH]2)cc1)N1CCN(S(=O)(=O)c2ccc3ccccc3c2)CC1`, for which the IC50 in assay [1] is 13.3 µM; in assay [2], 27.8 µM; in assay [3] it was 16.5 µM; in assay [4], above 50 µM; in assay [5] it was 26.6 µM.
Turning to `O=C(c1ccc(-c2nc3ccccc3c(=O)[nH]2)cc1)N1CCN(S(=O)(=O)Cc2ccc(Cl)cc2)CC1`, the IC50 was 4.4 µM in assay [1]; 27.1 µM in assay [2]; 12.6 µM in assay [3]; above 50 µM in assay [4]; above 50 µM in assay [5]. Moreover, the “fold change (FC)” value in assay [6] was determined as 1.2. The Ratio in assay [7] stood at 8.74.
For `COc1ccc(S(=O)(=O)N2CCN(C(=O)c3ccc(-c4nc5ccccc5c(=O)n4C)cc3)CC2)cc1`, the IC50 in assay [1] was 23.7 µM; in assay [2], 21.5 µM; in assay [3], 25.8 µM; in assay [4], above 50 µM; in assay [5] it was 5.9 µM.
The matching figures for `O=C(c1ccc(-c2nc3ccccc3c(=O)[nH]2)cc1)N1CCN(S(=O)(=O)c2ccc(C(F)(F)F)cc2)CC1`: 13.4 µM, 14.9 µM, 21.6 µM, 31.4 µM and 6.5 µM.
The matching figures for `Cc1ccc(S(=O)(=O)N2CCN(C(=O)c3ccc(-c4nc5ccccc5c(=O)[nH]4)cc3)CC2)cc1`: 23.5 µM, 18.1 µM, 10.5 µM, 43.5 µM and 8.4 µM.
In the same order, the values of `O=C(c1ccc(-c2nc3ccccc3c(=O)[nH]2)cc1)N1CCN(S(=O)(=O)c2cccs2)CC1` are above 50 µM, 21.3 µM, 15.7 µM, 9.4 µM and 2.2 µM.
On to `O=C(c1ccc(-c2nc3ccccc3c(=O)[nH]2)cc1)N1CCN(S(=O)(=O)c2ccc(Cl)cc2)CC1`, for which the IC50 is 18 µM in assay [1]; above 50 µM in assay [2]; above 50 µM in assay [3]; above 50 µM in assay [4]; 13.6 µM in assay [5].
As to `O=C(c1ccc(-c2nc3ccccc3c(=O)[nH]2)cc1)N1CCN(S(=O)(=O)c2cccc3ccccc23)CC1`, the IC50 in assay [1] was found to be 11.7 µM; in assay [2] it was 9.9 µM; in assay [3] it was 11.6 µM; in assay [4], 22.2 µM; in assay [5], 7 µM.
The matching figures for `Cn1c(-c2ccc(C(=O)N3CCN(S(=O)(=O)c4ccccc4)CC3)cc2)nc2ccccc2c1=O`: 14.1 µM, 10.4 µM, 13.3 µM, 9.1 µM and 5.9 µM.
On to `O=C(c1ccc(-c2nc3ccccc3c(=O)[nH]2)cc1)N1CCN(S(=O)(=O)c2ccccc2C(F)(F)F)CC1`, for which the IC50 in assay [1] is 8.3 µM; in assay [2], 24.7 µM; in assay [3] it was above 50 µM; in assay [4], 5.5 µM; in assay [5] it was 14.1 µM.
The matching figures for `COc1ccc(S(=O)(=O)N2CCN(C(=O)c3ccc(-c4nc5ccccc5c(=O)[nH]4)cc3)CC2)cc1`: above 50 µM, 27 µM, 21.6 µM, 5.1 µM and 7.5 µM.
On to `O=C(c1ccc(-c2nc3ccccc3c(=O)[nH]2)cc1)N1CCN(S(=O)(=O)C2CCCC2)CC1`, for which the IC50 was 11.2 µM in assay [1]; 4.8 µM in assay [2]; 12.9 µM in assay [3]; 14.7 µM in assay [4]; 11.2 µM in assay [5]. In addition, the “fold change (FC)” value in assay [6] was determined as 1.2. Moreover, the Ratio in assay [7] was found to be 5.96.
With `CC(C)S(=O)(=O)N1CCN(C(=O)c2ccc(-c3nc4ccccc4c(=O)[nH]3)cc2)CC1`, the IC50 in assay [1] is 11 µM; in assay [2], 17.4 µM; in assay [3], above 50 µM; in assay [4], 5.8 µM; in assay [5], 7.5 µM.
Take `COc1ccc(Cn2c(-c3ccc(C(=O)N4CCN(S(=O)(=O)c5ccc(OC)cc5)CC4)cc3)nc3ccccc3c2=O)cc1`: the 50% inhibitory concentration (IC50) in assay [1] came to 16.5 µM; in assay [2], 5.8 µM; in assay [3] it was 5.8 µM; in assay [4] it was 9.9 µM; in assay [5], 3.8 µM. The “fold change (FC)” value in assay [6] is reported as 1.18. The Ratio in assay [7] was determined as 7.29.
With `Cc1ccc(CS(=O)(=O)N2CCN(C(=O)c3ccc(-c4nc5ccccc5c(=O)[nH]4)cc3)CC2)cc1`, the IC50 in assay [1] was found to be 9 µM; in assay [2], 29.6 µM; in assay [3] it was 19.5 µM; in assay [4], 7.7 µM; in assay [5], 16.7 µM.
On to `O=C(c1ccc(-c2nc3ccccc3c(=O)[nH]2)cc1)N1CCN(S(=O)(=O)c2cccc(C(F)(F)F)c2)CC1`, for which the IC50 in assay [1] is 9.3 µM; in assay [2] it was 14.1 µM; in assay [3], 9.5 µM; in assay [4], above 50 µM; in assay [5], 23.5 µM.
For `COc1ccc(Cn2c(-c3ccc(C(=O)N4CCN(S(=O)(=O)c5ccccc5)CC4)cc3)nc3ccccc3c2=O)cc1`, the IC50 was determined as 2.9 µM in assay [1]; 2.5 µM in assay [2]; 8.6 µM in assay [3]; 4.2 µM in assay [4]; 2.6 µM in assay [5]. In assay [6], the “fold change (FC)” value was determined as 1.19. The Ratio in assay [7] was 6.83.
With `O=C(O)c1ccc(-c2nc3ccccc3c(=O)[nH]2)cc1`, the IC50 in assay [1] was above 50 µM; in assay [2] it was 28.1 µM; in assay [3], 30.6 µM; in assay [4], above 50 µM; in assay [5] it was 11.7 µM.
Consider `O=C(c1ccc(-c2nc3ccccc3c(=O)[nH]2)cc1)N1CCN(S(=O)(=O)c2ccccc2)CC1`, for which the IC50 in assay [1] is 8.9 µM; in assay [2], 7.1 µM; in assay [3], 12.5 µM; in assay [4] it was 32.6 µM; in assay [5] it was 14.3 µM.
For the compound `O=C(c1ccc(-c2nc3ccccc3c(=O)n2Cc2ccccc2)cc1)N1CCN(S(=O)(=O)c2ccccc2)CC1`, the IC50 in assay [1] was 20.1 µM; in assay [2] it was 15.3 µM; in assay [3], 23.6 µM; in assay [4] it was 19.3 µM; in assay [5] it was 4.2 µM.
The matching figures for `CCCCS(=O)(=O)N1CCN(C(=O)c2ccc(-c3nc4ccccc4c(=O)[nH]3)cc2)CC1`: 17.3 µM, 17.9 µM, 10.3 µM, 1.2 µM and 14.9 µM.
As for `CC(C)(C)OC(=O)N1CCN(C(=O)c2ccc(-c3nc4ccccc4c(=O)n3Cc3ccccc3)cc2)CC1`, the IC50 in assay [1] was 21.6 µM; in assay [2], above 50 µM; in assay [3], above 50 µM; in assay [4] it was 40.4 µM; in assay [5], 2.9 µM.
As to `O=C(c1ccc(-c2nc3ccccc3c(=O)[nH]2)cc1)N1CCNCC1`, the IC50 in assay [1] is above 50 µM; in assay [2], 24.3 µM; in assay [3], above 50 µM; in assay [4], above 50 µM; in assay [5], 16.7 µM.
Take `O=C(c1ccc(-c2nc3ccccc3c(=O)[nH]2)cc1)N1CCN(S(=O)(=O)C2CC2)CC1`: the IC50 is above 50 µM in assay [1]; 6 µM in assay [2]; above 50 µM in assay [3]; 8.2 µM in assay [4]; 10.8 µM in assay [5].
`O=C(c1ccc(-c2nc3ccccc3c(=O)[nH]2)cc1)N1CCN(S(=O)(=O)c2cccc3cccnc23)CC1`: the IC50 in assay [1] is 11.1 µM; in assay [2] it was 15.6 µM; in assay [3] it was above 50 µM; in assay [4], 6.3 µM; in assay [5], 14.6 µM.
Regarding `CS(=O)(=O)N1CCN(C(=O)c2ccc(-c3nc4ccccc4c(=O)[nH]3)cc2)CC1`, the IC50 in assay [1] was above 50 µM; in assay [2], 20 µM; in assay [3] it was above 50 µM; in assay [4] it was 6.4 µM; in assay [5], 11.6 µM.
Turning to `Cn1c(-c2ccc(C(=O)N3CCN(C(=O)OC(C)(C)C)CC3)cc2)nc2ccccc2c1=O`, the IC50 in assay [1] was 15.5 µM; in assay [2], 17.2 µM; in assay [3], 28 µM; in assay [4] it was 24.9 µM; in assay [5], 9.5 µM.
In the same order, the values of `CC(C)c1ccc(S(=O)(=O)N2CCN(C(=O)c3ccc(-c4nc5ccccc5c(=O)[nH]4)cc3)CC2)cc1` are 17.2 µM, 16.2 µM, 9 µM, 9.4 µM and 2.6 µM.
With `CC(C)(C)OC(=O)N1CCN(C(=O)c2ccc(-c3nc4ccccc4c(=O)[nH]3)cc2)CC1`, the IC50 in assay [1] was 20.7 µM; in assay [2] it was above 50 µM; in assay [3], 20.7 µM; in assay [4], 8.5 µM; in assay [5] it was 15.4 µM.
With `COc1cccc2c1C(=O)c1c(O)c3c(c(O)c1C2=O)C[C@@](O)(C(=O)CO)C[C@@H]3O[C@H]1C[C@H](N)[C@H](O)[C@H](C)O1` [DOXORUBICIN], the IC50 in assay [1] is 3.7 µM; in assay [2] it was 1.9 µM; in assay [3], 2.5 µM; in assay [5], 0.8 µM.
As to `O=C(c1ccc(-c2nc3ccccc3c(=O)[nH]2)cc1)N1CCN(S(=O)(=O)c2ccc(F)cc2)CC1`, the 50% inhibitory concentration (IC50) in assay [1] was 35.4 µM; in assay [2], 35 µM; in assay [3], 11.1 µM; in assay [4], 27.7 µM; in assay [5], 10.9 µM.
